Experimental data as given in PubChem BioAssay (NCI).
Values joined by “and” are separate entries in the source; they are usually repeats but may differ in a detail not shown here. Identical values can stand only once.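 Each compound was tested at five concentrations against cells in 96-well plates for 48 hours. Abbreviation: GI50, concentration required for 50% inhibition of growth. TGI: concentration producing complete growth inhibition.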

Experiments:
Assay in all cases: NCI tumour cell line growth inhibition, 48 h
[1] = system: UACC-62 melanoma
[2] = system: SF-268 CNS
[3] = system: MOLT-4 leukemia
[4] = system: SN12C renal
[5] = system: SW-620 colon
[6] = system: OVCAR-5 ovarian
[7] = system: SNB-75 CNS
[8] = system: SNB-19 CNS
[9] = system: UO-31 renal
[10] = system: K-562 leukemia

SMILES	TGI [1]	TGI [2]	TGI [3]	TGI [4] [µM]	TGI [5] [µM]	TGI [6] [µM]	TGI [7]	TGI [8] [µM]	TGI [9]	GI50 [2] [µM]	GI50 [3] [µM]	GI50 [10] [µM]	TGI [10]	GI50 [4] [µM]	GI50 [5]	GI50 [6]	GI50 [7] [µM]	GI50 [8]	GI50 [9] [µM]	GI50 [1] [µM]
COCCOCOC(C)(C)[C@H](CCO)O[Si](c1ccccc1)(c1ccccc1)C(C)(C)C	28.3 µM	22.5 µM	22.9 µM	12.7	25.2	27.5	21.6 µM	31.7	26.9 µM											
O=C1c2ccccc2C(=O)c2c1cc1c(c2[N+](=O)[O-])OCO1		7.73 µM	> 100 µM	8.05	11.5	8.74	3.46 µM	14.4	6.02 µM	1.46	0.794	0.621	6.26 µM	1.73	0.68 µM	2.39 µM	1.44	2.55 µM	1.54	
CC(C)=CC(=O)OC1C2C(C)=CC(O)C(O)C2(C)C2C3(O)OCC24C(CC(=O)OC14)C(C)C3O (centres undefined)	0.263 µM	0.733 µM	1.31 µM	6.9	4.81	3.79	0.693 µM	0.519	8.57 µM				1.79 µM							
OC1COC(OCc2ccccc2)C(O)C1O (centres undefined)	> 100 µM	> 100 µM	> 100 µM	> 100	> 100	> 100		> 100	> 100 µM				> 100 µM							
CC(C)=CCC/C(C)=C/CCC1(C)C=Cc2c(c3ccccc3oc2=O)O1 (centres undefined)	24 µM	40.8 µM	> 72.7 µM	32	33.7	32.6	19.8 µM	37.7	28.8 µM				> 89 µM							
C/C(=N\NC(=S)Nc1ccc([N+](=O)[O-])cc1)c1nc2ncccc2[nH]1		> 100 µM	13.3 µM	56.6	> 100	4.14	4.1 µM	4	1.35 µM				> 100 µM							
Cc1cccc(CNc2ncnc3[nH]ncc23)c1	> 100 µM	> 100 µM	> 100 µM	> 100	> 100	> 100	> 100 µM	> 100	> 100 µM				> 100 µM							
COc1cc(/C=C/C2=C(C#N)C(=O)OC2(C)C)ccc1O	> 100 µM	> 100 µM	> 100 µM	> 100	> 100	> 100	> 100 µM	> 100	> 100 µM				> 100 µM							
CCCCCCCCCCCCC(O)C(=O)O (centres undefined)	> 100 µM		> 100 µM	> 100	> 100	> 100	> 100 µM	> 100	> 100 µM				> 100 µM							
O=C(O)CCCc1ccccc1	587 µM and > 1000 µM	348 µM and > 1000 µM	394 µM and > 1000 µM	> 1000	> 1000	> 1000	327 µM and > 1000 µM	> 1000	715 µM and > 1000 µM		> 1000	> 1000	338 µM and > 1000 µM	> 1000	333 µM and > 1000 µM	456 µM and > 1000 µM		537 µM and > 1000 µM	> 1000	> 1000
C/C(N=NS(=O)(=O)c1ccc(C)cc1)=C1\C=CC=CN1O	> 100 µM	> 100 µM	> 100 µM	> 100	> 100	> 100	> 100 µM	> 100	> 100 µM											
COc1cc(C(=O)C2CC3(CCC2(O)c2cc(OC)c(OC)c(OC)c2)CC(=O)Nc2ccccc2C3=O)cc(OC)c1OC (centres undefined)	> 100 µM	> 100 µM	> 100 µM	> 100	> 100	> 100	> 100 µM	> 100	> 100 µM				> 100 µM							
Cc1cn(C2CC(O)C(Cn3nncc3Cn3ncc(=O)[nH]c3=O)O2)c(=O)[nH]c1=O (centres undefined)	> 100 µM	> 100 µM	> 100 µM	> 100	> 100	> 100		> 100	> 100 µM											
c1ccc2cc3c(cc2c1)OP1(Oc2cccc4cccnc24)(O3)Oc2cc3ccccc3cc2O1	9.39 µM	> 100 µM		> 100	> 50.2	45.6	92.1 µM	> 100	20.1 µM				> 40.3 µM							
Cc1c(C2=NN=C(N=Nc3c(O)cccc3O)/C2=C/c2ccccc2)c(=O)n(-c2ccccc2)n1C	> 100 µM	> 100 µM	> 100 µM	> 100	> 100	> 100	> 100 µM	> 100	> 100 µM				> 100 µM							
CC1SC(c2ccc(Cl)cc2)N(CCc2cccs2)C1=O (centres undefined)	2.35 µM	3.49 µM	9.11 µM	3.15	3.22	4.56	5.99 µM	3.31		1.55	2.46			1.7	1.54 µM	1.85 µM	2.05	1.65 µM		1.05
